Laboratory results published in US20230157952A1, “METHOD FOR IMPROVING THE STABILITY OF A PHARMACEUTICAL COMPOSITION COMPRISING A HIGH PENETRATION DRUG, AND THE PHARMACEUTICAL COMPOSITION OBTAINED THEREFROM” (Techfields Inc., priority 2020, published 2023).

How the values were obtained:
[1] = Effect of pH value on the stability of the solution (purity); assay type: physicochemical; details: 25° C.
[2] = Effect of temperature (and pH) on the stability of the solution (purity); assay type: physicochemical; details: 7% solution in water
[3] = Stability of the pure HPDs (dry solid) at 25° C./RH 60%; assay type: physicochemical; details: pure HPD, 25° C./RH 60%, listed as A-1-1
[4] = Effect of concentration on the stability of the solution (purity over time); details: in water at 25° C.

CCN(CC)CCOC(=O)[C@H](C)c1ccc2cc(OC)ccc2c1.Cl (racemic) [2-(diethylamino)ethyl (R,S)-2-(6-methoxy-2-naphthyl)propionate•HCl]
Purity(%) from day 0-28 ([1]; day 28, pH 1.0, 7% solution in water): 68.9 ± 0.3%
Purity(%) from day 0-28 ([1]; day 28, pH 2.0, 7% solution in water): 80.9 ± 0.4%
Purity(%) from day 0-28 ([1]; day 28, pH 3.0, 7% solution in water): 90.3 ± 0.3%
Purity(%) from day 0-28 ([1]; day 28, pH 3.7, 7% solution in water): 97.2 ± 0.2%
Purity(%) from day 0-28 ([1]; day 28, pH 5.0, 7% solution in water): 96.3 ± 0.2%
Purity(%) from day 0-28 ([1]; day 28, pH 6.0, 7% solution in water): 89.9 ± 0.3%
Purity(%) from day 0-28 ([1]; day 28, pH 7.0, 7% solution in water): 65.8 ± 0.3%
Purity(%) from day 0-28 ([1]; day 28, pH 8.0, 7% solution in water): 45.8 ± 0.4%
Stability of the solution at a temperature higher than 40° C. and a pH lower than 3 or greater than 6 [2]: not stable
Purity ([3]; 3 month): 98.6 ± 0.1
Purity ([3]; 6 month): 98.8 ± 0.1
Purity ([3]; Day 0): 98.8 ± 0.2
Purity at Day 3 ([4]; 0.01 wt %): 79.6%
Purity at Day 7 ([4]; 0.01 wt %): 73.4%
Purity at Day 14 ([4]; 0.01 wt %): 68.7%
Purity at Day 21 ([4]; 0.01 wt %): 64.5%
Purity at Day 28 ([4]; 0.01 wt %): 61.4%
Purity at hr 24 ([4]; 0.01 wt %): 91.7%
Purity at Day 7 ([4]; 0.1 wt %): 97.2%
Purity at Day 14 ([4]; 0.1 wt %): 96.1%
Purity at Day 21 ([4]; 0.1 wt %): 95.4%
Purity at Day 28 ([4]; 0.1 wt %): 94.1%
Purity at Day 14 ([4]; 1 wt %): 97.4%
Purity at Day 21 ([4]; 1 wt %): 96.9%
Purity at Day 28 ([4]; 1 wt %): 96.4%
Purity at Day 21 ([4]; 3 wt %): 97.6%
Purity at Day 28 ([4]; 3 wt %): 97.1%
Purity at Day 28 ([4]; 5 wt %): 97.5%
Purity at Day 21 ([4]; 8 wt %): 97.5%
Purity at Day 28 ([4]; 8 wt %): 97.6%
Purity at Day 21 ([4]; 10 wt %): 97.4%
Purity at Day 28 ([4]; 10 wt %): 97.6%
Purity at Day 21 ([4]; 15 wt %): 97.5%
Purity at Day 28 ([4]; 15 wt %): 97.6%
Purity at Day 21 ([4]; 20 wt %): 97.4%
Purity at Day 28 ([4]; 20 wt %): 97.6%
Stability when the concentration is 0.1% or lower [4]: not stable
